Experimental data reported in PMC10502144, “Anti-methicillin-resistant Staphylococcus aureus activity and safety evaluation of 14-O-[(5-ethoxycarbonyl-4,6-dimethylpyrimidine-2-yl) thioacetyl] mutilin (EDT)” (Scientific Reports, 2023).
Converted amounts (≈) assume the structure as drawn. Read-outs that look alike come from different tables or passages of the source.

Legend:
[1] = system: clinical isolates of MRSA; test: MIC by broth serial-dilution against 48 clinical isolates of MRSA; format: cell-based, methicillin-resistant Staphylococcus aureus
Protocol: The tests against 48 clinical isolates of MRSA from dairy farms in 4 different provinces in China[37] were conducted in triplicate, using broth serial-dilution method in 96-well plates according to CLSI reference methods. Briefly, EDT and tiamulin fumarate used as referent drug were dissolved in 25% dimethyl sulfoxide (DMSO) to a solution with concentration of 64 μg/mL. The obtained 100 μL solutions were then added into the first column of the 96-well plate, and diluted to the tenth well with serial twofold dilutions. The last two wells were used as positive controls. The 100 μL bacterial suspension was diluted in MHB to give a final organism density of to 10^5 ~ 10^6 colony-forming unit (CFU) per 1 mL and added to all the wells, followed by incubating at 37 °C for 24 h. […] The results were expressed as an average of the MICs obtained from three independent experiments.

[2] = system: Salmonella Typhimurium TA102; test: Ames test, TA102
Protocol: (§1) Before the test, Salmonella Typhimurium (S. Typhimurium) TA97a, TA98, TA100, TA102, TA1535 and Escherichia coli WP2uvrA pKM101 (pKM101) were first checked for their genetic integrity, including biotin dependence, rfa marker (crystal violet), biotin, histidine dependence and presence of the plasmid pKM101 (ampicillin resistance) or pAQ1 (tetracycline resistance). […] The maximum concentration of EDT was also screened using a preliminary experiment.
(§2) DMSO (0.1 mL) was directly incorporated into 1.9 mL melted top agar as the vehicle control. […] Each strain (0.1 mL, 6–7 log10 CFU/mL) was added into 2 mL of top agar in which comprised 0.5 mL S9 (10%), serial concentrations of EDT (2000, 400, 80, 16 and 3.2 μg/plate), DMSO or control chemicals for testing with the S9. For testing without S9, 0.5 mL phosphate buffer saline (PBS, pH 7.4) replaced the S9 mix. Then, the obtained top agar was melted, poured onto the surface of […] and swirled to distribute the top agar to all surfaces of medium, followed by incubation at 37 °C for 48 h. The resultant colonies were counted manually as the number of revertant colonies per plate. The experiments were performed in triplicate and the results were expressed as the average ± SD.

[3] = Microsomal stability assay, human; format: in vitro ADME; conditions: human liver microsomes
Protocol: Mouse and human liver microsomes were thawed slowly on ice. A total of 5 mg/mL of microsomes, 2 μL of a 100 μM solution of EDT and 183 μL of 100 mM phosphate buffer were incubated 5 min at 37 °C in a water bath. Reactions were initiated using 10 μL of 20 mM NADPH. Samples were incubated in three replicates at 37 °C under gentle agitation at 150 rpm. At 0, 5, 15, 30, and 60 min, reactions were terminated by the addition of 180 μL of acetonitrile. After centrifugation (4000 rpm, 10 min), samples were then analyzed by liquid chromatography/tandem mass spectrometry (LC–MS/MS). Peak areas of the respective time point of the compound were normalized to the peak area at time point 0 min. Then half-life was calculated using linear regression from log percentage (t1/2 = − 0.693/k).

[4] = system: S. Typhimurium TA97a, TA98, TA100, TA102, TA1535 and Escherichia coli WP2uvrA pKM101; test: Ames test, all tested strains (overall result and preliminary dose finding); format: cell-based, Salmonella Typhimurium; Escherichia coli
Protocol: as §1, §2

[5] = system: Salmonella Typhimurium TA1535
Protocol: as §1, §2

C=CC1(C)CC(OC(=O)CSc2nc(C)c(C(=O)OCC)c(C)n2)C2(C)C(C)CCC3(CCC(=O)C32)C(C)C1O (stereo not shown) [EDT, 14-O-[(5-ethoxycarbonyl-4,6-dimethylpyrimidine-2-yl)thioacetyl] mutilin]
MIC ([1]; Staphylococcus aureus, MRSA, read-out: MIC values against 48 strains, range over 48 clinical isolates of MRSA): 0.0313 to 0.0625 mg/L (≈ 0.0546 to 0.109 µM)
inhibition at 0.0625 µg/mL ([1]; Staphylococcus aureus, MRSA, read-out: strains inhibited): 97.9%
MIC ([1]; Staphylococcus aureus, MRSA, strain CX1): 0.0313 mg/L (≈ 0.0546 µM)
MIC ([1]; Staphylococcus aureus, MRSA, strain CX2): 0.0313 mg/L (≈ 0.0546 µM)
MIC ([1]; Staphylococcus aureus, MRSA, strain CX5): 0.0313 mg/L (≈ 0.0546 µM)
MIC ([1]; Staphylococcus aureus, MRSA, strain CX6): 0.0313 mg/L (≈ 0.0546 µM)
MIC ([1]; Staphylococcus aureus, MRSA, strain CX7): 0.0625 mg/L (≈ 0.109 µM)
MIC ([1]; Staphylococcus aureus, MRSA, strain CX9): 0.125 mg/L (≈ 0.218 µM)
MIC ([1]; Staphylococcus aureus, MRSA, strain HG1): 0.0313 mg/L (≈ 0.0546 µM)
MIC ([1]; Staphylococcus aureus, MRSA, strain HG2): 0.0313 mg/L (≈ 0.0546 µM)
MIC ([1]; Staphylococcus aureus, MRSA, strain HG3): 0.0313 mg/L (≈ 0.0546 µM)
MIC ([1]; Staphylococcus aureus, MRSA, strain HG4): 0.0313 mg/L (≈ 0.0546 µM)
MIC ([1]; Staphylococcus aureus, MRSA, strain HG5): 0.0313 mg/L (≈ 0.0546 µM)
MIC ([1]; Staphylococcus aureus, MRSA, strain HG6): 0.0313 mg/L (≈ 0.0546 µM)
MIC ([1]; Staphylococcus aureus, MRSA, strain HG7): 0.0625 mg/L (≈ 0.109 µM)
MIC ([1]; Staphylococcus aureus, MRSA, strain QY4): 0.0313 mg/L (≈ 0.0546 µM)
MIC ([1]; Staphylococcus aureus, MRSA, strain QY5): 0.0313 mg/L (≈ 0.0546 µM)
MIC ([1]; Staphylococcus aureus, MRSA, strain QY6): 0.0625 mg/L (≈ 0.109 µM)
MIC ([1]; Staphylococcus aureus, MRSA, strain QY8): 0.0313 mg/L (≈ 0.0546 µM)
MIC ([1]; Staphylococcus aureus, MRSA, strain QY10): 0.0625 mg/L (≈ 0.109 µM)
MIC ([1]; Staphylococcus aureus, MRSA, strain SH3): 0.0313 mg/L (≈ 0.0546 µM)
MIC ([1]; Staphylococcus aureus, MRSA, strain SH4): 0.0313 mg/L (≈ 0.0546 µM)
MIC ([1]; Staphylococcus aureus, MRSA, strain SH6): 0.0313 mg/L (≈ 0.0546 µM)
MIC ([1]; Staphylococcus aureus, MRSA, strain SH7): 0.0625 mg/L (≈ 0.109 µM)
MIC ([1]; Staphylococcus aureus, MRSA, strain SH8): 0.0313 mg/L (≈ 0.0546 µM)
MIC ([1]; Staphylococcus aureus, MRSA, strain SH9): 0.0313 mg/L (≈ 0.0546 µM)
MIC ([1]; Staphylococcus aureus, MRSA, strain SH10): 0.0313 mg/L (≈ 0.0546 µM)
MIC ([1]; Staphylococcus aureus, MRSA, strain SH11): 0.0313 mg/L (≈ 0.0546 µM)
MIC ([1]; Staphylococcus aureus, MRSA, strain SH12): 0.0313 mg/L (≈ 0.0546 µM)
MIC ([1]; Staphylococcus aureus, MRSA, strain SH13): 0.0313 mg/L (≈ 0.0546 µM)
MIC ([1]; Staphylococcus aureus, MRSA, strain SH14): 0.0313 mg/L (≈ 0.0546 µM)
MIC ([1]; Staphylococcus aureus, MRSA, strain SH15): 0.0313 mg/L (≈ 0.0546 µM)
MIC ([1]; Staphylococcus aureus, MRSA, strain SX5): 0.0313 mg/L (≈ 0.0546 µM)
MIC ([1]; Staphylococcus aureus, MRSA, strain SX6): 0.0313 mg/L (≈ 0.0546 µM)
MIC ([1]; Staphylococcus aureus, MRSA, strain SX7): 0.0313 mg/L (≈ 0.0546 µM)
MIC ([1]; Staphylococcus aureus, MRSA, strain SX8): 0.0313 mg/L (≈ 0.0546 µM)
MIC ([1]; Staphylococcus aureus, MRSA, strain SX9): 0.0313 mg/L (≈ 0.0546 µM)
MIC ([1]; Staphylococcus aureus, MRSA, strain SX10): 0.0313 mg/L (≈ 0.0546 µM)
MIC ([1]; Staphylococcus aureus, MRSA, strain SX16): 0.0625 mg/L (≈ 0.109 µM)
MIC ([1]; Staphylococcus aureus, MRSA, strain SX17): 0.0313 mg/L (≈ 0.0546 µM)
MIC ([1]; Staphylococcus aureus, MRSA, strain SX18): 0.0313 mg/L (≈ 0.0546 µM)
MIC ([1]; Staphylococcus aureus, MRSA, strain ZY1): 0.0313 mg/L (≈ 0.0546 µM)
MIC ([1]; Staphylococcus aureus, MRSA, strain ZY2): 0.0313 mg/L (≈ 0.0546 µM)
MIC ([1]; Staphylococcus aureus, MRSA, strain ZY3): 0.0313 mg/L (≈ 0.0546 µM)
MIC ([1]; Staphylococcus aureus, MRSA, strain ZY4): 0.0313 mg/L (≈ 0.0546 µM)
MIC ([1]; Staphylococcus aureus, MRSA, strain ZY5): 0.0313 mg/L (≈ 0.0546 µM)
MIC ([1]; Staphylococcus aureus, MRSA, strain ZY6): 0.0313 mg/L (≈ 0.0546 µM)
MIC ([1]; Staphylococcus aureus, MRSA, strain ZY7): 0.0313 mg/L (≈ 0.0546 µM)
MIC ([1]; Staphylococcus aureus, MRSA, strain ZY8): 0.0625 mg/L (≈ 0.109 µM)
MIC ([1]; Staphylococcus aureus, MRSA, strain ZY9): 0.0313 mg/L (≈ 0.0546 µM)
MIC values against 48 strains ([1]; range over 48 clinical isolates of MRSA): 0.0313 to 0.125 mg/L
number of revertant colonies per plate ([2]; TA102, 3.2 μg/plate, +S9): 214.33 ± 14.67
number of revertant colonies per plate ([2]; TA102, 3.2 μg/plate, −S9): 208.00 ± 15.00
number of revertant colonies per plate ([2]; TA102, 16 μg/plate, +S9): 218.00 ± 9.00
number of revertant colonies per plate ([2]; TA102, 16 μg/plate, −S9): 205.00 ± 11.00
number of revertant colonies per plate ([2]; TA102, 80 μg/plate, +S9): 223.67 ± 17.33
number of revertant colonies per plate ([2]; TA102, 80 μg/plate, −S9): 209.33 ± 13.67
number of revertant colonies per plate ([2]; TA102, 400 μg/plate, +S9): 219.67 ± 18.33
number of revertant colonies per plate ([2]; TA102, 400 μg/plate, −S9): 211.00 ± 14.00
number of revertant colonies per plate ([2]; TA102, 2000 μg/plate, +S9): 236.33 ± 19.67
number of revertant colonies per plate ([2]; TA102, 2000 μg/plate, −S9): 228.00 ± 16.00
half-life at 1 μM [3]: 43.6 min
microsomal CLint at 1 μM [3]: 31.8 µL/min/mg
toxicity to the test strains, preliminary experiment ([4]; 2000 μg/plate): not toxic
toxicity to the test strains, preliminary experiment ([4]; 5000 μg/plate): inhibited the test strains
number of revertant colonies compared with the vehicle control ([4]; 3.2-2000 μg/plate, −S9 and +S9, all strains): no significantly different
number of revertant colonies per plate ([5]; TA1535, 3.2 μg/plate, +S9): 21.00 ± 4.00
number of revertant colonies per plate ([5]; TA1535, 3.2 μg/plate, −S9): 19.67 ± 1.33
number of revertant colonies per plate ([5]; TA1535, 16 μg/plate, +S9): 27.00 ± 2.00
number of revertant colonies per plate ([5]; TA1535, 16 μg/plate, −S9): 23.33 ± 1.67
number of revertant colonies per plate ([5]; TA1535, 80 μg/plate, +S9): 25.00 ± 4.00
number of revertant colonies per plate ([5]; TA1535, 80 μg/plate, −S9): 23.33 ± 2.67
number of revertant colonies per plate ([5]; TA1535, 400 μg/plate, +S9): 26.00 ± 3.00
number of revertant colonies per plate ([5]; TA1535, 400 μg/plate, −S9): 23.33 ± 2.67
number of revertant colonies per plate ([5]; TA1535, 2000 μg/plate, +S9): 19.33 ± 3.67
number of revertant colonies per plate ([5]; TA1535, 2000 μg/plate, −S9): 17.67 ± 2.33
